Measurements taken from patent US11820766B2, “Monoacylglycerol lipase modulators” (Janssen Pharmaceutica NV, priority 2018, dated 2023).
Structures can show the parent of a compound that is named as a salt.

These molecules were tested against T1, human MGL from HeLa cells (Homo sapiens, UniProt Q99685) (assay: In vitro MGL activity assay: [glycerol-1,3-3H]-oleyl glycerol cleavage by MGL from HeLa cells). Conditions: 300 nM [Glycerol-1,3-3H]-oleyl glycerol, one hour.
T1 construct: combining endogenously expressed MGL from HeLa cells with test compounds; endogenous in cells; host or cells: HeLa cells / cell homogenates
T1 sequence (Q99685 1-303): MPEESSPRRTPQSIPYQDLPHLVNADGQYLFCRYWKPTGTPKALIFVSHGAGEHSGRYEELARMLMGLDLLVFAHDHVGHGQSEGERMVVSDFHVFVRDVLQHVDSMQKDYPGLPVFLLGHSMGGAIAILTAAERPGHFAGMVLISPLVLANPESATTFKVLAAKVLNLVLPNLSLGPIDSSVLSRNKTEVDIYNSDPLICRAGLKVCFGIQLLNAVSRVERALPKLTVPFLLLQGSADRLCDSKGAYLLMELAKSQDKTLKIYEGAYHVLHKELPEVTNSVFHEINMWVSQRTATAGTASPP
Format: biochemical
Excerpt: MGL is the predominant hydrolase in HeLa cells/cell homogenates.

First: Cc1ccnc2c(C(=O)N3CCc4c(nn(C)c4-c4cc(F)c(F)c(F)c4)[C@@H]3C)cnn12 [Example 450, [(7S)-2,7-Dimethyl-3-(3,4,5-trifluorophenyl)-5,7-dihydro-4H-pyrazolo[3,4-c]pyridin-6-yl]-(7-methylpyrazolo[1,5-a]pyrimidin-3-yl) methanone]
Second: Cc1nn2cccnc2c1C(=O)N1CCc2c(nn(C)c2-c2cc(F)c(F)c(F)c2)[C@@H]1C [Example 449, [(7S)-2,7-Dimethyl-3-(3,4,5-trifluorophenyl)-5,7-dihydro-4H-pyrazolo[3,4-c]pyridin-6-yl]-(2-methylpyrazolo[1,5-a]pyrimidin-3-yl)methanone]
The IC50 of the first is 3.5-fold higher: 172 nM for the first, 49 nM for the second. The second is the more potent here.

First: Cc1cccc2nc(C(F)(F)F)c(C(=O)N3CCc4c(nn(C)c4-c4cc(F)c(F)c(F)c4)[C@@H]3C)n12 [Example 414, [(7S)-2,7-Dimethyl-3-(3,4,5-trifluorophenyl)-5,7-dihydro-4H-pyrazolo[3,4-c]pyridin-6-yl]-[5-methyl-2-(trifluoromethyl)imidazo[1,2-a]pyridin-3-yl]methanone]
Second: C[C@H]1c2nn(C)c(-c3cc(F)c(F)c(F)c3)c2CCN1C(=O)c1cnc2cccc(F)c2c1 [Example 545, [(7S)-2,7-Dimethyl-3-(3,4,5-trifluorophenyl)-5,7-dihydro-4H-pyrazolo[3,4-c]pyridin-6-yl]-(5-fluoro-3-quinolyl)methanone]
The IC50 of the first is 1.7-fold higher: 20.4 nM for the first, 11.7 nM for the second. The second is the more potent here.

Compared with `C[C@H]1c2nn(C)c(-c3cc(F)c(F)c(F)c3)c2CCN1C(=O)c1cccc2[nH]nnc12` [Example 367, 1H-Benzotriazol-4-yl-[(7S)-2,7-dimethyl-3-(3,4,5-trifluorophenyl)-5,7-dihydro-4H-pyrazolo[3,4-c]pyridin-6-yl]methanone], `C[C@H]1c2nn(C)c(-c3cc(F)c(F)c(F)c3)c2CCN1C(=O)c1n[nH]c2ncccc12` [Example 426, [(7S)-2,7-Dimethyl-3-(3,4,5-trifluorophenyl)-5,7-dihydro-4H-pyrazolo[3,4-c]pyridin-6-yl]-(1H-pyrazolo[3,4-b]pyridin-3-yl)methanone] is 45-fold lower in IC50: 658 nM for the first, 14.5 nM for the second. The second is the more potent here.

Compared with `C[C@H]1c2nn(C)c(-c3cc(F)c(F)c(F)c3)c2CCN1C(=O)c1nn(C)c2cnccc12` [Example 431, [(7S)-2,7-Dimethyl-3-(3,4,5-trifluorophenyl)-5,7-dihydro-4H-pyrazolo[3,4-c]pyridin-6-yl]-(1-methylpyrazolo[3,4-c]pyridin-3-yl)methanone.TFA salt], `C[C@H]1c2nn(C)c(-c3cc(F)c(F)c(F)c3)c2CCN1C(=O)c1ncn2ccccc12` [Example 420, [(7S)-2,7-Dimethyl-3-(3,4,5-trifluorophenyl)-5,7-dihydro-4H-pyrazolo[3,4-c]pyridin-6-yl]-imidazo[1,5-a]pyridin-1-yl-methanone] is 1.6-fold lower in IC50: 95.3 nM for the first, 59.1 nM for the second. The second is the more potent here.

First: C[C@H]1c2nn(C)c(-c3cc(F)c(F)c(F)c3)c2CCN1C(=O)c1cnc2n1CCCC2 [Example 560, [(7S)-2,7-Dimethyl-3-(3,4,5-trifluorophenyl)-5,7-dihydro-4H-pyrazolo[3,4-c]pyridin-6-yl]-(5,6,7,8-tetrahydroimidazo[1,2-a]pyridin-3-yl)methanone]
Second: C[C@H]1c2nn(C)c(-c3cc(F)c(F)c(F)c3)c2CCN1C(=O)c1ccc2nccn2n1 [Example 452, [(7S)-2,7-Dimethyl-3-(3,4,5-trifluorophenyl)-5,7-dihydro-4H-pyrazolo[3,4-c]pyridin-6-yl]-imidazo[1,2-b]pyridazin-6-yl-methanone]
The IC50 of the first is 2.3-fold lower: 120 nM for the first, 276 nM for the second. The first is the more potent here.

Going from `C[C@H]1c2nn(C)c(-c3cccc4nonc34)c2CCN1C(=O)c1ccc2ncccc2c1` [Example 538, [(7S)-3-(2,1,3-Benzoxadiazol-4-yl)-2,7-dimethyl-5,7-dihydro-4H-pyrazolo[3,4-c]pyridin-6-yl]-(6-quinolyl)methanone] to `[2H]c1cnc2cc(C(=O)N3CCc4c(nn(C)c4-c4cc(F)c(F)c(F)c4)[C@@H]3C)ccc2n1` [Example 483, (2-Deuterioquinoxalin-6-yl)-[(7S)-2,7-dimethyl-3-(3,4,5-trifluorophenyl)-5,7-dihydro-4H-pyrazolo[3,4-c]pyridin-6-yl]methanone], the IC50 falls from 72.6 nM to 10.2 nM (7.1-fold).

Going from `C[C@H]1c2nn(C)c(-c3cc(F)c(F)c(F)c3)c2CCN1C(=O)c1ccc2[nH]c(=O)oc2c1` [Example 588, 6-[(7S)-2,7-Dimethyl-3-(3,4,5-trifluorophenyl)-5,7-dihydro-4H-pyrazolo[3,4-c]pyridine-6-carbonyl]-3H-1,3-benzoxazol-2-one] to `C[C@H]1c2nn(C)c(-c3cc(F)c(F)c(F)c3)c2CCN1C(=O)c1ccc2nccc(Br)c2c1` [Example 547, (4-Bromo-6-quinolyl)-[(7S)-2,7-dimethyl-3-(3,4,5-trifluorophenyl)-5,7-dihydro-4H-pyrazolo[3,4-c]pyridin-6-yl]methanone], the IC50 falls from 11.3 nM to 5.62 nM (2-fold). The second is the more potent here.

In the case of `C[C@H]1c2nn(-c3ccccc3)c(-c3ccccc3)c2CCN1C(=O)c1cnn(C)c1C1CC1` [Example 350, (S)-(5-cyclopropyl-1-methyl-1H-pyrazol-4-yl) (7-methyl-2,3-diphenyl-2,4,5,7-tetrahydro-6H-pyrazolo[3,4-c]pyridin-6-yl)methanone], the IC50 is reported as 27.6 nM.

Same assay, conditions: 300 nM [Glycerol-1,3-3H]-oleyl glycerol, one hour incubation

Going from `COCc1cncc(C(=O)N2CCc3c(nn(C)c3-c3cc(F)c(F)c(F)c3)[C@@H]2C)c1` [Example 304, [(7S)-2,7-Dimethyl-3-(3,4,5-trifluorophenyl)-5,7-dihydro-4H-pyrazolo[3,4-c]pyridin-6-yl]-[5-(methoxymethyl)-3-pyridyl]methanone] to `Cc1cnc2cc(C(=O)N3CCc4c(nn(C)c4-c4cc(F)c(F)c(F)c4)[C@@H]3C)ccc2n1` [Example 243, (S)-(2,7-Dimethyl-3-(3,4,5-trifluorophenyl)-2,4,5,7-tetrahydro-6H-pyrazolo[3,4-c]pyridin-6-yl)(2-methylquinoxalin-6-yl)methanone], the IC50 falls from 578 nM to 25 nM (23-fold). The second is the more potent here.

First: Cn1nc2c(c1-c1ccccc1)CCN(C(=O)c1cnc3ccccc3c1)C2 [Example 95, (2-Methyl-3-phenyl-2,4,5,7-tetrahydro-6H-pyrazolo[3,4-c]pyridin-6-yl)(quinolin-3-yl)methanone]
Second: Cn1nc2c(c1-c1ccccc1)CCN(C(=O)c1cccc3[nH]ccc13)C2 [Example 42, (1H-Indol-4-yl)(2-methyl-3-phenyl-2,4,5,7-tetrahydro-6H-pyrazolo[3,4-c]pyridin-6-yl)methanone]
The IC50 of the first is 42-fold higher: 984 nM for the first, 23.6 nM for the second.

Compared with `C[C@H]1c2nn(C)c(-c3cc(F)c(F)c(F)c3)c2CCN1C(=O)c1cc(F)cc(-n2nccn2)c1` [Example 284, [(7S)-2,7-Dimethyl-3-(3,4,5-trifluorophenyl)-5,7-dihydro-4H-pyrazolo[3,4-c]pyridin-6-yl]-[3-fluoro-5-(triazol-2-yl)phenyl]methanone], `Cc1cc(C(=O)N2CCc3c(nn(C)c3-c3cc(F)c(F)c(F)c3)[C@@H]2C)cc(-n2nccn2)c1` [Example 286, [(7S)-2,7-Dimethyl-3-(3,4,5-trifluorophenyl)-5,7-dihydro-4H-pyrazolo[3,4-c]pyridin-6-yl]-[3-methyl-5-(triazol-2-yl)phenyl]methanone] is 6.9-fold lower in IC50: 15.6 nM for the first, 2.27 nM for the second.

First: COc1cc(F)cc(-c2c3c(nn2C)[C@H](C)N(C(=O)c2ccc4nccnc4c2)CC3)c1 [Example 186, (S)-(3-(3-Fluoro-5-methoxyphenyl)-2,7-dimethyl-2,4,5,7-tetrahydro-6H-pyrazolo[3,4-c]pyridin-6-yl)(quinoxalin-6-yl)methanone]
Second: Cc1ccc(-c2c3c(nn2C)[C@H](C)N(C(=O)c2ccc4nccnc4c2)CC3)o1 [Example 107, (S)-(2,7-Dimethyl-3-(5-methylfuran-2-yl)-2,4,5,7-tetrahydro-6H-pyrazolo[3,4-c]pyridin-6-yl)(quinoxalin-6-yl)methanone]
The IC50 of the first is 5.7-fold lower: 46 nM for the first, 261 nM for the second. The first is the more potent here.

Going from `Cn1nc2c(c1-c1ccccc1)CCN(C(=O)c1cccc(OC(F)(F)F)n1)C2` [Example 25, (2-Methyl-3-phenyl-2,4,5,7-tetrahydro-6H-pyrazolo[3,4-c]pyridin-6-yl)(6-(trifluoromethoxy)pyridin-2-yl)methanone] to `CN1CCOc2cc(C(=O)N3CCc4c(nn(C)c4-c4ccccc4)C3)ccc21` [Example 27, (4-Methyl-3,4-dihydro-2H-benzo[b][1,4]oxazin-7-yl)(2-methyl-3-phenyl-2,4,5,7-tetrahydro-6H-pyrazolo[3,4-c]pyridin-6-yl)methanone], the IC50 falls from 2430 nM to 290 nM (8.4-fold).

Compared with `COc1ccc(C)c(C(=O)N2CCc3c(nn(C)c3-c3cc(F)c(F)c(F)c3)[C@@H]2C)n1` [Example 302, [(7S)-2,7-Dimethyl-3-(3,4,5-trifluorophenyl)-5,7-dihydro-4H-pyrazolo[3,4-c]pyridin-6-yl]-(6-methoxy-3-methyl-2-pyridyl)methanone], `COc1ccc(C(=O)N2CCc3c(nn(C)c3-c3cc(F)c(F)c(F)c3)[C@@H]2C)cc1-c1ccn(C)n1` [Example 271, [(7S)-2,7-Dimethyl-3-(3,4,5-trifluorophenyl)-5,7-dihydro-4H-pyrazolo[3,4-c]pyridin-6-yl]-[4-methoxy-3-(1-methylpyrazol-3-yl)phenyl]methanone] is 1.7-fold lower in IC50: 312 nM for the first, 182 nM for the second.

Going from `CC1c2nn(C)c(-c3ccccc3)c2CCN1C(=O)c1ccc2ncccc2c1` (racemic) [Example 110, (2,7-Dimethyl-3-phenyl-2,4,5,7-tetrahydro-6H-pyrazolo[3,4-c]pyridin-6-yl)(quinolin-6-yl)methanone] to `C[C@H]1c2nn(C)c(-c3cccc(Cl)c3)c2CCN1C(=O)c1ccc2ncccc2n1` [Example 131, (S)-(3-(3-Chlorophenyl)-2,7-dimethyl-2,4,5,7-tetrahydro-6H-pyrazolo[3,4-c]pyridin-6-yl)(1,5-naphthyridin-2-yl)methanone], the IC50 rises from 19.9 nM to 46.2 nM (2.3-fold). The first is the more potent here.
